Values joined by “and” are separate entries in the source; they are usually repeats but may differ in a detail not shown here. Equal entries are not always repeated. Where two headings read alike, the source gives them in different places.
Assays:
[1] = system: severe COVID-19 (SARS-CoV-2 infection); assay type: in vivo
[2] = Safety and clinical laboratory parameters during maraviroc treatment of severe COVID-19; assay type: in vivo, human
Procedure: (§1) Clinical laboratory parameters were monitored daily. If patients gave voluntary consent, additional blood for cytokine and chemokine profiling in a research context was obtained and stored at -80° C. until use in the multiplex analysis (Bio-Plex Pro Human Cytokine 48-Plex Screening Panel plus ICAM and VCAM, Biorad, Munich, Germany) as described previously (Halama N, Michel S, Kloor M, et al., Cancer Res 2011;71:5670-7). Median protein concentrations per patient were compared in two groups: before and five or more days after the first day of maraviroc treatment.
Monitoring of clinical laboratory parameters also included, among others, serum levels of creatinine for kidney function, white blood count, lymphocyte count, and interleukin 6 (IL-6) as markers of inflammation and infection.

[3] = system: SARS-CoV-2 pneumonia; test: Time course of clinical inflammation parameters (CRP, transferrin saturation, IL-6) in serum of COVID-19 pneumonia patients; assay type: in vivo, human; details: COVID-19 pneumonia patients on standard therapy (piperacillin/tazobactam, caspofungin, hydroxychloroquine), FIG. 1
Procedure: Patients with diagnosed SARS-CoV-2 pneumonia received standard therapy with piperacillin/tazobactam, caspofungin, and hydroxychloroquine; where deemed clinically necessary, additionally Maraviroc, a CCR5 inhibitor, was administered as indicated in FIG. 1.
Patient characteristics were as follows: • Patient A (FIG. 1A): person, no relevant previous disease; • Patient B (FIG. 1B): person; • Patient C (FIG. 1C): person, no relevant previous disease; • Patient D (FIG. 1 D): person, state after chemotherapy for Burkitt lymphoma; under artificial respiration; • Patient E (FIG. 1E): person; • Patient F (FIG. 1 F): person; • Patient G (FIG. 1G): person, under artificial respiration; • Patient H (FIG. 1 H):person; • Patient I (FIG. 1 I): person; • Patient K (FIG. 1 K): person

[4] = system: serum cytokines and chemokines (IL-6, MIP-1b, IP-10, M-CSF); test: Clinical laboratory IL-6 and research serum cytokine and chemokine multiplex analysis before and after maraviroc; assay type: in vivo, human
Procedure: as §1
For research cytokine analyses, cytokines which were undetectable in more than 3 samples were excluded. Correction for batch effects from three experiments was performed using the Python packagepycombat (version 0.14), and was validated by analyzing the mixture of samples within UMAP embeddings (McInnes L, Healy J, Melville J. UMAP: Uniform Manifold Approximation and Projection for Dimension Reduction. arXiv 2018). Wilcoxon signed-rank tests were used when comparing cytokine concentrations between groups. Resulting p-values were adjusted for multiple hypothesis testing according to the Benjamini and Hochberg method (Benjamini Y, Hochberg Y., J R Stat Soc B 1995;57:289-300). Kaplan-Meier estimator of survival was employed to visualize cumulative clinical improvement. Hazard ratio and the logrank test were used to compare improvement between patients in different groups using the R packages survival, survminer, and cmprsk. Stated percentages and quartiles include rounded numbers. Statistical analyses were carried out using R-3.5.3, Python-3.6.4, Excel (Microsoft), and SigmaPlot (Systat Software, Inc).

[5] = system: interleukin 6 (IL-6); details: 5 of 6 patients (range 83 to 8175 pg per milliliter), three days after administration; cited from earlier work
[6] = system: SARS-CoV-2; details: severe COVID-19 cases; preprint; cited from earlier work
[7] = patients who received at least one dose before or concomitant to maraviroc
[8] = Patient 43, day 5, decreased on days 6 and 7
[9] = serum, subset of 14 patients, p<0.05, not significant after adjustment for multiple testing

tocilizumab: concomitant investigational treatment
number of patients who died [1, 7]: 3
number of patients with no change on the ordinal scale from baseline [1, 7]: 1 of 4
number of patients worsened on the ordinal scale from baseline [1, 7]: 3

C[C@]12C=CC(=O)C=C1CC[C@@H]1[C@@H]2[C@@H](O)C[C@@]2(C)[C@H]1CC[C@]2(O)C(=O)CO [prednisolone]
number of patients who died ([1]; in vivo): 1
number of patients improved on the ordinal scale from baseline [1, 7]: 3 of 7
number of patients with no change on the ordinal scale from baseline [1, 7]: 2
number of patients worsened on the ordinal scale from baseline [1, 7]: 2

Cc1nnc(C(C)C)n1[C@@H]1C[C@H]2CC[C@@H](C1)N2CC[C@H](NC(=O)C1CCC(F)(F)CC1)c1ccccc1 [maraviroc, 4,4-difluoro—N—[(1S)-3-[(1S,5R)-3-(3-methyl-5-propan-2-yl-1,2,4-triazol-4-yl)-8-azabicyclo[3.2.1]octan-8-yl]-1-phenylpropyl]cyclohexane-1-carboxamide]
median time to a substantial clinical improvement from baseline ([1]; IQR 7-16 days): 9 days
median time to improvement on the ordinal scale from baseline ([1]; all patients who improved, IQR 5-13 days): 8 days
patients with improvement on the 6-stage ordinal scale ([1]; breathing ambient air at baseline, 2 of 2 patients): 100%
patients worsened (died), mortality ([1]; invasive mechanical ventilation at baseline, 1 of 11 patients, 40 day observational period): 9.1% and 9%
patients remained under invasive ventilation ([1]; invasive ventilation at baseline, 2 of 11 patients): 18.2%
patients with improvement on the 6-stage ordinal scale ([1]; invasive ventilation at baseline, 8 of 11 patients): 72.7%
median time to improvement on the ordinal scale from baseline ([1]; invasive ventilation at baseline, IQR 5-19 days): 14 days
patients showing an improvement during the observational period ([1]; maraviroc patients not treated with HCQ, 14 of 18): 77.9%
median time to improvement ([1]; maraviroc patients not treated with HCQ, IQR 3-11 days): 7 days
patients showing an improvement during the observational period ([1]; maraviroc patients treated with at least one dose of HCQ, 22 of 29): 75.9%
median time to improvement ([1]; maraviroc patients treated with at least one dose of HCQ, IQR 3-13 days): 6 days
patients with improvement on the 6-stage ordinal scale ([1]; non-invasive ventilation at baseline, 7 of 11 patients): 63.6%
median time to improvement on the ordinal scale from baseline ([1]; not receiving invasive ventilation at baseline, IQR 5-11 days): 7 days
patients worsened from non-invasive to invasive ventilation ([1]; one patient of 47, after or during maraviroc treatment): 2.1%
patients with no change on the 6-stage ordinal scale ([1]; overall cohort, 4 of 47 patients): 8.5%
deaths (overall mortality) ([1]; overall cohort, 5 of 47 patients, 40 day time frame, median follow-up 12 days): 11%
patients worsened on the 6-stage ordinal scale ([1]; overall cohort, 6 of 47 patients, including deaths): 12.8%
patients discharged ([1]; overall cohort, 29 of 47 patients): 61.7%
patients with substantial clinical improvement (decrease of two stages or more or discharge) ([1]; overall cohort, 34 of 47 patients, day of final data acquisition): 72%
patients with improvement on the 6-stage ordinal scale ([1]; overall cohort, 37 of 47 patients, baseline until last day of data acquisition): 78.7%
clinical outcome of coronavirus infection / severe COVID-19 cases ([1]; overall statement): remarkably positive clinical outcomes
patients with improvement on the 6-stage ordinal scale ([1]; supplemental low-flow oxygen at baseline, 20 of 23 patients): 87%
patients with no change ([1]; without invasive mechanical ventilation at baseline, 2 of 36 patients): 5.6%
patients worsened ([1]; without invasive mechanical ventilation at baseline, 5 of 36 patients): 13.9%
patients improved ([1]; without invasive mechanical ventilation at baseline, 29 of 36 patients): 80.6%
novel adverse events ([2]; 47 severe COVID-19 patients): no novel AEs have been observed
increase in ALT from baseline [2, 8]: 2.8 fold
increase in AST from baseline [2, 8]: 3.6 fold
adverse event grade (CTCAE v5.0) ([2]; Patient 43, liver function): grade 2, moderate liver function AE
other changes of clinical laboratory parameters ([2]; creatinine, white blood count, lymphocyte count, IL-6 among others, monitored daily): no other clinically significant changes were observed
increase of inflammation markers after administration [3]: reverted in a very fast manner in all cases
change in concentration of MIP-1b (CCL4) from before to after treatment ([4]; serum, subset of 14 patients, after = 5 days or more after baseline, FIG. 5): significant increase
change in IP-10 (CXCL10) from before to after treatment [4, 9]: decrease
change in M-CSF (CSF1) from before to after treatment [4, 9]: decrease
median IL-6 level ([4]; three days after administration, decrease from baseline median 74.7 pg per milliliter, p-value=0.002): 37.7 pg per milliliter

B1: leronlimab: humanized IgG4 monoclonal antibody that blocks the chemokine receptor CCR5 on immune cells (antibody, chains of the INN, looked up, V domains shown)
VH: EVQLVESGGGLVKPGGSLRLSCAASGYTFSNYWIGWVRQAPGKGLEWIGDIYPGGNYIRNNEKFKDKTTLSADTSKNTAYLQMNSLKTEDTAVYYCGSSFGSNYVFAWFTYWGQGTLVTVSS
VL: DIVMTQSPLSLPVTPGEPASISCRSSQRLLSSYGHTYLHWYLQKPGQSPQLLIYEVSNRFSGVPDRFSGSGSGTDFTLKISRVEAEDVGVYYCSQSTHVPLTFGQGTKVEIK
change of high IL-6 levels [5]: decreased substantially
change in plasma viral load [6]: decrease

Reference: patent publication US20230172912A1, “COMPOUNDS FOR TREATING PNEUMONIA, SEPSIS, AND CORONAVIRUS INFECTION” (HEIDELBERG IMMUNOTHERAPEUTICS GMBH, priority 2020, published 2023)
